Values quoted from earlier work in publication PMC7395068, “The evolution of strategies to minimise the risk of human drug-induced liver injury (DILI) in drug discovery and development” (Archives of Toxicology, 2020).
Read-outs that look alike come from different tables or passages of the source. Where a SMILES comes first, the peptide text is derived from it. Bridges are numbered along the chain shown (N, C = ends). [ ]: non-standard residue; d: D form. hArg = N=C(N)NCCCC[C@H](N)C(=O)O; Mpa = O=C(O)CCS

Details: cited from earlier work
[1] = binary in vivo human DILI call, ref Chen 2016
[2] = human DILI, LTKB DILIrank category, ref Chen 2016

In the case of `OCC(S)CS` (centres unmarked) [dimercaprol], the “DILI +VE (5-8), DILI -VE (-4)” value [1] is listed as “-VE” and the DILI severity category [2] is listed as “vNo-DILI-Concern”.

For `CCOC(=O)C1(c2ccccc2)CCN(CCC(C#N)(c2ccccc2)c2ccccc2)CC1` [diphenoxylate], the “DILI +VE (5-8), DILI -VE (-4)” value [1] is given as “-VE” and the DILI severity category [2] is given as “vNo-DILI-Concern”.

In the case of `CC(C)N(CCC(C(N)=O)(c1ccccc1)c1ccccn1)C(C)C` (centres unmarked) [disopyramide], the “DILI +VE (5-8), DILI -VE (-4)” value [1] is given as “+VE” and the DILI severity category [2] is given as “vLess-DILI-Concern”.

In the case of `CCN1CC(CCN2CCOCC2)C(c2ccccc2)(c2ccccc2)C1=O` (centres unmarked) [doxapram], the “DILI +VE (5-8), DILI -VE (-4)” value [1] is listed as “-VE” and the DILI severity category [2] is listed as “vNo-DILI-Concern”.

In the case of `CN(C)CCC=C1c2ccccc2COc2ccccc21` [doxepin], the “DILI +VE (5-8), DILI -VE (-4)” value [1] is listed as “+VE” and the DILI severity category [2] is listed as “vLess-DILI-Concern”.

In the case of `C=C1/C(=C\C=C2/CCC[C@]3(C)[C@@H]([C@H](C)/C=C/[C@H](C)C(C)C)CC[C@@H]23)C[C@@H](O)C[C@@H]1O` [doxercalciferol], the “DILI +VE (5-8), DILI -VE (-4)” value [1] is given as “-VE” and the DILI severity category [2] is given as “Ambiguous DILI-concern”.

In the case of `CCCCc1oc2ccc(NS(C)(=O)=O)cc2c1C(=O)c1ccc(OCCCN(CCCC)CCCC)cc1` [dronedarone], the “DILI +VE (5-8), DILI -VE (-4)” value [1] is listed as “+VE” and the DILI severity category [2] is listed as “vMost-DILI-Concern”.

In the case of `CNCC[C@H](Oc1cccc2ccccc12)c1cccs1` [duloxetine], the “DILI +VE (5-8), DILI -VE (-4)” value (in vivo) is listed as “+VE” and the DILI severity category (in vivo) is listed as “vMost-DILI-Concern”.

For `C[C@]12C=CC(=O)N[C@@H]1CC[C@@H]1[C@@H]2CC[C@]2(C)[C@@H](C(=O)Nc3cc(C(F)(F)F)ccc3C(F)(F)F)CC[C@@H]12` [dutasteride], the “DILI +VE (5-8), DILI -VE (-4)” value [1] is listed as “-VE” and the DILI severity category [2] is listed as “vNo-DILI-Concern”.

For `O=C(O)CN(CCN(CC(=O)O)CC(=O)O)CC(=O)O` [edetic acid], the “DILI +VE (5-8), DILI -VE (-4)” value (in vivo) is listed as “-VE” and the DILI severity category (in vivo) is listed as “Ambiguous DILI-concern”.

For `CN1CCC[C@@H]1Cc1c[nH]c2ccc(CCS(=O)(=O)c3ccccc3)cc12` [eletriptan], the “DILI +VE (5-8), DILI -VE (-4)” value [1] is listed as “-VE” and the DILI severity category [2] is listed as “Ambiguous DILI-concern”.

In the case of `CC1=NN(c2ccc(C)c(C)c2)C(=O)/C1=N\Nc1cccc(-c2cccc(C(=O)O)c2)c1O` [eltrombopag olamine], the “DILI +VE (5-8), DILI -VE (-4)” value [1] is listed as “+VE” and the DILI severity category [2] is listed as “vMost-DILI-Concern”.

In the case of `Nc1nc(=O)n([C@@H]2CS[C@H](CO)O2)cc1F` [emtricitabine], the “DILI +VE (5-8), DILI -VE (-4)” value [1] is given as “-VE” and the DILI severity category [2] is given as “Ambiguous DILI-concern”.

For `CN[C@@H](C)[C@H](O)c1ccccc1` [ephedrine], the “DILI +VE (5-8), DILI -VE (-4)” value (in vivo) is listed as “-VE” and the DILI severity category (in vivo) is listed as “vNo-DILI-Concern”.

In the case of `CNC[C@H](O)c1ccc(O)c(O)c1` [epinephrine], the “DILI +VE (5-8), DILI -VE (-4)” value [1] is listed as “-VE” and the DILI severity category [2] is listed as “vNo-DILI-Concern”.

In the case of `COc1cccc2c1C(=O)c1c(O)c3c(c(O)c1C2=O)C[C@@](O)(C(=O)CO)C[C@@H]3O[C@H]1C[C@H](N)[C@@H](O)[C@H](C)O1` [epirubicin], the “DILI +VE (5-8), DILI -VE (-4)” value [1] is given as “-VE” and the DILI severity category [2] is given as “Ambiguous DILI-concern”.

In the case of `COC(=O)[C@@H]1CC2=CC(=O)CC[C@]2(C)[C@@]23O[C@@H]2C[C@@]2(C)[C@@H](CC[C@@]24CCC(=O)O4)[C@H]13` [eplerenone], the “DILI +VE (5-8), DILI -VE (-4)” value [1] is listed as “-VE” and the DILI severity category [2] is listed as “Ambiguous DILI-concern”.

In the case of `CCCCC[C@H](O)/C=C/[C@@H]1[C@H]2C/C(=C/CCCC(=O)O)O[C@H]2C[C@H]1O` [epoprostenol], the “DILI +VE (5-8), DILI -VE (-4)” value [1] is given as “-VE” and the DILI severity category [2] is given as “Ambiguous DILI-concern”.

In the case of `CCCCc1ncc(/C=C(\Cc2cccs2)C(=O)O)n1Cc1ccc(C(=O)O)cc1` [eprosartan], the “DILI +VE (5-8), DILI -VE (-4)” value [1] is given as “-VE” and the DILI severity category [2] is given as “Ambiguous DILI-concern”.

For `N=C(N)NCCCC[C@@H]1NC(=O)CCSSC[C@@H](C(N)=O)NC(=O)[C@@H]2CCCN2C(=O)[C@H](Cc2c[nH]c3ccccc23)NC(=O)[C@H](CC(=O)O)NC(=O)CNC1=O` [eptifibatide] ([Mpa][hArg]GDWPC-NH2; disulfide 1-7), the “DILI +VE (5-8), DILI -VE (-4)” value (in vivo) is listed as “-VE” and the DILI severity category (in vivo) is listed as “vNo-DILI-Concern”.

For `C[C@@H](O)[C@H]1C(=O)N2C(C(=O)O)=C(S[C@@H]3CN[C@H](C(=O)Nc4cccc(C(=O)O)c4)C3)[C@H](C)[C@H]12` [ertapenem], the “DILI +VE (5-8), DILI -VE (-4)” value [1] is listed as “-VE” and the DILI severity category [2] is listed as “Ambiguous DILI-concern”.

For `CN(C)CCC[C@@]1(c2ccc(F)cc2)OCc2cc(C#N)ccc21` [escitalopram], the “DILI +VE (5-8), DILI -VE (-4)” value (in vivo) is listed as “+VE” and the DILI severity category (in vivo) is listed as “vLess-DILI-Concern”.

For `COc1ccc2[n-]c([S@@+]([O-])Cc3ncc(C)c(OC)c3C)nc2c1.[Na+]` [esomeprazole Sodium], the “DILI +VE (5-8), DILI -VE (-4)” value (in vivo) is given as “+VE” and the DILI severity category (in vivo) is given as “vLess-DILI-Concern”.

In the case of `Clc1ccc2c(c1)C(c1ccccc1)=NCc1nncn1-2` [estazolam], the “DILI +VE (5-8), DILI -VE (-4)” value [1] is given as “-VE” and the DILI severity category [2] is given as “vNo-DILI-Concern”.

In the case of `C[C@]12CC[C@@H]3c4ccc(OC(=O)N(CCCl)CCCl)cc4CC[C@H]3[C@@H]1CC[C@@H]2O` [estramustine], the “DILI +VE (5-8), DILI -VE (-4)” value [1] is listed as “+VE” and the DILI severity category [2] is listed as “vMost-DILI-Concern”.
